Common to all, as to assay type: binding
The target in assay [1] is T1, EIF2C2/Ago2 PAZ domain (Ago2PAZ) (Homo sapiens, UniProt Q9UKV8).
T1 construct: PAZ domain, residues 226-379, hexahistidine tag (pQE30, BamHI/HindIII), tag removal not mentioned; expressed in E. coli; Talon and Sephacryl S200HR
Put plainly: isothermal titration calorimetry. For orientation: ITC needs no label: the signal is the heat of the interaction.

For assay [2], the target named is T1, EIF2C2/Ago2 PAZ domain (Ago2PAZ). Put plainly: ITC displacement (UMP titrated into dCMP-saturated protein). To be noted: 25 mM potassium phosphate pH 7; 12°C; competition with UMP; unreliable (estimated, direct titration ND). The text has this: ITC displacement (UMP titrated into dCMP-saturated protein) on EIF2C2/Ago2 PAZ domain (Ago2PAZ)
Assay [3] shares this target. Put plainly: ITC displacement (UMP titrated into AMP-saturated protein). Conditions: 25 mM potassium phosphate pH 7; 12°C; competition with UMP; unreliable (estimated, direct titration ND). The text has this:
ITC displacement (UMP titrated into AMP-saturated protein) on EIF2C2/Ago2 PAZ domain (Ago2PAZ)

Assay [4] has the same target. Put plainly: ITC displacement (UMP titrated into dAMP-saturated protein). To be noted: 25 mM potassium phosphate pH 7; 12°C; competition with UMP; unreliable (estimated, direct titration ND). The text has this: ITC displacement (UMP titrated into dAMP-saturated protein) on EIF2C2/Ago2 PAZ domain (Ago2PAZ)

Where two headings read alike, the source gives them in different places.

The text below walks through data of publication PMC4008379, “Bioenergetics and Gene Silencing Approaches for Unraveling Nucleotide Recognition by the Human EIF2C2/Ago2 PAZ Domain” (PLoS ONE, 2014).

T1 sequence (Q9UKV8 227-379): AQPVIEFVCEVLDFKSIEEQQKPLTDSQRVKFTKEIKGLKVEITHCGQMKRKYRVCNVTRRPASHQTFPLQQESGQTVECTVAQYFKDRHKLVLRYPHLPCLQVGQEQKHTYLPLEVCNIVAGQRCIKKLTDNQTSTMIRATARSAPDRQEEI

For `O=c1ccn([C@@H]2O[C@H](COP(=O)(O)O)[C@@H](O)[C@H]2O)c(=O)[nH]1` [UMP], the Kd in assay [1] (25 mM potassium phosphate pH 7, one-set-of-sites model, fitted n 2.2, read-out: Kd /) was determined as 15 µM.
Take `Cc1cn([C@H]2C[C@H](O)[C@@H](COP(=O)(O)O)O2)c(=O)[nH]c1=O` [TMP]: the Kd in assay [1] (read-out: Kd /) amounted to 232 µM.
The same measure, in the same setting: as for `Nc1nc2c(ncn2[C@H]2C[C@H](O)[C@@H](COP(=O)(O)O)O2)c(=O)[nH]1` [dGMP], the figure is 40 µM; as for `Nc1nc2c(ncn2[C@@H]2O[C@H](COP(=O)(O)O)[C@@H](O)[C@H]2O)c(=O)[nH]1` [GMP], 22 µM.
As to `Nc1ccn([C@H]2C[C@H](O)[C@@H](COP(=O)(O)O)O2)c(=O)n1` [dCMP], the “Estimated KB / M^-1” value in assay [2] is 155 M⁻¹.
Take `Nc1ncnc2c1ncn2[C@@H]1O[C@H](COP(=O)(O)O)[C@@H](O)[C@H]1O` [AMP]: the “Estimated KB / M^-1” value in assay [3] is 143 M⁻¹.
`Nc1ncnc2c1ncn2[C@H]1C[C@H](O)[C@@H](COP(=O)(O)O)O1` [dAMP]: the “Estimated KB / M^-1” value in assay [4] was 72 M⁻¹.
Turning to `Nc1ccn([C@@H]2O[C@H](COP(=O)(O)O)[C@@H](O)[C@H]2O)c(=O)n1` [CMP], in assay [1] (read-out: Kd /), the Kd came out at 40 µM.
For `Cc1cn([C@@H]2O[C@H](COP(=O)(O)O)[C@@H](O)[C@H]2O)c(=O)[nH]c1=O` [compound 2, 5-Methyluridine-5′-O-monophosphate], the Kd in assay [1] (read-out: Ka (converted)) was 58.8 µM.
